The text below walks through data of patent publication US20100035904A1, “PHE[…]; METHODS OF MAKING; AND METHODS OF USE THEREOF” (priority 2008, published 2010).

Structures can show the parent of a compound that is named as a salt.

A short description of data set [1]: Moisture sorption experiments. The class given is physicochemical. The conditions noted are these: for hygroscopicity (moisture sorption analysis): 0-90% RH; for XRPD pattern of material following the moisture sorption experiment: after sorption/desorption and drying. The method, then: Moisture sorption experiments are carried out on about 10 milligrams (mg) of sample in a Pyrex bulb by first equilibrating the sample at 25° C./40% relative humidity (RH) until an equilibrium weight is reached. The sample is then subjected to an isothermal (25° C.) adsorption scan from 40 to 90% RH in steps of 10% RH. The sample is allowed to equilibrate to either an asymptotic weight or a maximum of four hours for each relative humidity. A desorption scan from 90 to 0% RH (at 25° C.) is then run in steps of −10% again allowing a maximum of four hours for equilibration or an asymptotic weight. Following desorption, an adsorption scan is performed from 0% RH to the initial 40% RH. The sample is then dried for one hour at 80° C. to obtain the dry weight.

The conditions of data set [2]: background statement; cited from earlier work.
The nature of data set [3]: Stability of the salt in seven day toluene slurry (XRPD). The class given is physicochemical. The conditions noted are these: ambient temperature, seven days. The method, then:
Stability of the salt is evaluated using a seven day toluene slurry. Each salt (about 10-20 mg) is slurried in 250 microliters of toluene at ambient temperature for seven days in a 4 ml vial. After seven days, each sample is filtered and dried overnight at ambient temperature under vacuum. The samples are then analyzed by XRPD.

A short description of data set [4]: Analysis of residual solids from water slurry (XRPD, 1H-NMR) for form conversion. The class given is physicochemical. The conditions noted are these: water slurry overnight, ambient temperature.

As to `CCC1(c2ccccc2)C(=O)NC(=O)NC1=O` [Phenobarbital free form, 5-ethyl-5-phenyl-2,4,6(1H,3H,5H)-pyrimidinetrione, reference compound], in data set [1] (25° C.), the “hygroscopicity (moisture sorption analysis)” value is “nonhygroscopic” and the “water adsorbed at 90% RH” value is 0.1 wt %. Further, the “XRPD pattern of material following the moisture sorption experiment” value (shortened to “XRPD pattern”) in data set [1] is “consistent with the initial phenobarbital starting material”.
Regarding `CCC1(c2ccccc2)C(=O)NC(=O)NC1=O` [Phenobarbital sodium], the “hygroscopicity / stability in humid environments” value in data set [2] is “hygroscopic and degrades when exposed to humid environments”.
In the case of `CCC1(c2ccccc2)C(=O)[N-]C(=O)NC1=O.C[N+](C)(C)CCO` [phenobarbital choline salt, phenobarbital choline], in data set [1] (25° C.), the “hygroscopicity (moisture sorption analysis)” value was “hygroscopic” and the “water adsorbed at 90% RH” value is 23 wt %. In addition, the “XRPD pattern” value in data set [1] is on record as “consistent with the initial material”. Moreover, the “XRPD of material following seven day toluene slurry” value in data set [3] is on record as “consistent with the initial material”. Moreover, the “stability of the salt in water slurry (conclusion)” value (“stability of the salt” below) in data set [4] is given as “remained stable”.
As to `CCC1(c2ccccc2)C(=O)NC(=O)NC1=O` [phenobarbital potassium salt, phenobarbital potassium], in data set [4], the “stability of the salt” value is “potential dissociation”.
Consider `CCC1(c2ccccc2)C(=O)NC(=O)NC1=O` [phenobarbital sodium salt, phenobarbital sodium], for which, in data set [1] (25° C.), the “hygroscopicity (moisture sorption analysis)” value was “hygroscopic” and the “water adsorbed at 90% RH” value is listed as “approximately 34 wt %”. Also, the “water adsorbed between 10-60% RH” value in data set [1] (25° C., 10-60% RH) is recorded as “approximately 2 wt %”. Besides, the “XRPD pattern” value in data set [1] is “shows differences in comparison to the diffraction pattern of the initial material”. In data set [1] (desorption, 40-5% RH), the “water content at which the desorption curve stabilizes” value is “approximately 12 wt %”. Further, in data set [3], the “XRPD of material following seven day toluene slurry” value is given as “amorphous”.
Turning to phenobarbital benzathine, in data set [1] (25° C.), the “hygroscopicity (moisture sorption analysis)” value is “nonhygroscopic” and the “water adsorbed at 90% RH” value is given as 1.0 wt %. In data set [1], the “XRPD pattern” value was “consistent with the initial material”. The “stability of the salt” value in data set [4] was “remained stable”.
In the case of “phenobarbital betaine [phenobarbital betaine salt]”, in data set [1] (25° C.), the “hygroscopicity (moisture sorption analysis)” value was “hygroscopic” and the “water adsorbed at 90% RH” value is 28.1 wt %. The “XRPD pattern” value in data set [1] is “consistent with the initial material”. The “XRPD of material following seven day toluene slurry” value in data set [3] is “consistent with the initial material”. The “stability of the salt” value in data set [4] is given as “salt dissociation”.
